Experimental findings from the NIST ThermoML archive (doi:10.1016/j.fluid.2016.10.024) are described below.

Numbers after ± are expanded uncertainties.

As a reminder, the refractive index is a measure of how strongly the sample bends light.

This series in a line: refractive index (Na D-line) (dimensionless). Particulars: 293.15 K; 101.33 kPa; Liquid; Standard Abbe refractometry.

Turning to `CC(C)=O` [acetone], the refractive index worked out at 1.3588 ± 0.0011.

With `CCC(C)O` (stereo not drawn) [butan-2-ol], the refractive index is on record as 1.3978 ± 0.0011.

Regarding `CCC(=O)O` [propanoic acid], the refractive index was 1.3809 ± 0.001.
